The procedure of series [1]:
The solubility of the organic carboxylic acid strontium salts, were measured in water. The solubility of these salts was also measured as a function of temperature. This was performed by incubating the saturated solutions of the salts in temperature controlled incubators.
The buffered solutions were immersed into a bath of water temperature controlled at either room temperature (22-24° C.), at 30° C. or at 40° C. […] In order to eliminate any reminiscent strontium chloride influence on the determination of solubility, all the precipitate was collected at the bottom of the test tubes and the solutions above the precipitate were carefully removed and substituted by fresh solutions. […] From these solutions, the dissolved proportions of the strontium salt were collected in volumes of 1 mL at the specified temperature. The solutions were diluted to 50 mL before analysis by Flame Atomic Absorption Spectrometry (F-AAS).
Two methods were used for quantification of strontium in solutions: Flame Atomic Absorption Spectrometry (F-AAS), and the more sensitive inductively-coupled-plasmamass spectrometry (ICP-MS).
The solubilities were investigated as described above, and strontium content in the saturated solutions determined as described here below.
Some of the very soluble strontium salts were further diluted before analysis by F-AAS. The measurements were performed by using a Perkin-Elmer 2100 equipped with a hydrogen lamp for correction of the background signal. Strontium was measured at a slit with of 0.2 nm, the wavelength was 460.8 nm operated at an energy of 58 and a current of 8 mA.
This analysis was performed using a Perkin Elmer Elan 5000 system equipped with a cross-flow nebulizer. The power was set at 1000 W and the Argon-gas flow was 12 L/min and 0.8 L/min of the torch and plasma gas, respectively.

The source holds these as a separate data set.
For series [2] the following is noted: values quoted in scientific literature or reference material; cited from earlier work.

We go through five compounds from US20130071496A1, “CONTROLLED RELEASE COMPOSITION CONTAINING A STRONTIUM SALT” (Osteologix A/S, priority 2003, published 2013).

Molecules are shown by their SMILES. Like-named read-outs stand apart in the source and are kept apart here.

`O=C([O-])/C=C/C(=O)[O-].[Sr+2]` [Fumerate, strontium fumarate]: in series [1], the “SOLUBILITY AT 40° C., In water” value is 444 mg/L; the “SOLUBILITY AT ROOM TEMPERATURE (22-24° C.), In water” value was found to be 571 Mg/L; the “solubility compared to the other organic strontium salts” value is listed as “poor solubility”. In series [1] (pH 7.5), the “SOLUBILITY AT 40° C., pH 7.5” value was 977 mg/L and the “SOLUBILITY AT ROOM TEMPERATURE (22-24° C.), pH 7.5” value amounted to 1215 Mg/L.

For the compound `[Cl-].[Cl-].[Sr+2]` [SrCl2, strontium chloride], the “time to maximum serum concentration” value (serum strontium, single oral gavage, rats) was “approximately 2 hours”. Besides, the “Solubility, Measured” value in series [1] (commercially available salts, in water at room temperature (22-24°)) worked out at 240 mg/mL. For the same compound, the “Solubility, Expected Value 18° C.” value in series [2] is 538 mg/mL.

With `N#Cc1c(N(CC(=O)[O-])CC(=O)[O-])sc(C(=O)[O-])c1CC(=O)[O-].[Sr+2].[Sr+2]` [Ranelate, distrontium salt of 2-[N,N-di(carboxymethyl)amino]-3-cyano-4-carboxymethylthiophene-5-carboxylic acid, reference compound], under “rat, in vivo, po”, the “time to maximum serum concentration” value is reported as “approximately 2 hours”. In series [1], the “SOLUBILITY AT 40° C., In water” value was 1450 mg/L and the “SOLUBILITY AT ROOM TEMPERATURE (22-24° C.), In water” value is on record as 760 Mg/L. For the same compound, in series [1] (pH 7.5), the “SOLUBILITY AT 40° C., pH 7.5” value turned out to be 1970 mg/L and the “SOLUBILITY AT ROOM TEMPERATURE (22-24° C.), pH 7.5” value came out at 890 Mg/L.

On to `CC(=O)C(=O)O` [Pyruvate, strontium pyruvate], for which the “SOLUBILITY AT ROOM TEMPERATURE (22-24° C.), In water” value in series [1] is reported as 2204 Mg/L. Also, the “SOLUBILITY AT ROOM TEMPERATURE (22-24° C.), pH 7.5” value in series [1] (pH 7.5) is listed as 1946 Mg/L.

As to `O=C([O-])/C=C\C(=O)[O-].[Sr+2]` [Maleate, strontium maleate], in series [1], the “SOLUBILITY AT 40° C., In water” value is given as 2527 mg/L and the “SOLUBILITY AT ROOM TEMPERATURE (22-24° C.), In water” value is 3002 Mg/L. Moreover, in series [1] (pH 7.5), the “SOLUBILITY AT 40° C., pH 7.5” value was determined as 1457 mg/L; the “SOLUBILITY AT ROOM TEMPERATURE (22-24° C.), pH 7.5” value was 1680 Mg/L; the “solubility in pH 7.5 buffered solution compared with pure water” value is reported as “decreased solubility in the buffered solution”.
